Values of other authors in article PMC6311893, “Computational prediction of plasma protein binding of cyclic peptides from small molecule experimental data using sparse modeling techniques” (BMC Bioinformatics, 2018).

Test system: plasma protein
Conditions: fraction bound to plasma protein; small molecule dataset, sheet 1-SM (Set Dte = test, Dtr = training); ref Ingle et al.; cited from earlier work
In the case of `CN(C)C(=O)Oc1cc(OC(=O)N(C)C)cc(C(O)CNC(C)(C)C)c1` (stereo not drawn) [bambuterol], the “PPB (fb)” value is given as 0.45.
In the case of `NCCC(O)(P(=O)(O)O)P(=O)(O)O` [pamidronic acid], the “PPB (fb)” value is listed as 0.14.
For `CCN(CC)C(=O)C1(c2ccccc2)CC1CN` (stereo not drawn) [milnacipran], the “PPB (fb)” value is given as 0.13.
For `CC(C)(O)C(Cl)(Cl)Cl` [chlorobutanol], the “PPB (fb)” value is listed as 0.55.
For `CN[C@@H]1CCc2[nH]c3ccc(C(N)=O)cc3c2C1` [Frovatriptan], the “PPB (fb)” value is listed as 0.15.
For `Cc1ncc([N+](=O)[O-])n1CCO` [Metronidazole], the “PPB (fb)” value is listed as 0.07.
For `CCOc1nc2cccc(C(=O)OC(C)OC(=O)OC3CCCCC3)c2n1Cc1ccc(-c2ccccc2-c2nnn[nH]2)cc1` (stereo not drawn) [Candesartan cilexetil], the “PPB (fb)” value is given as 0.99.
In the case of `CCCc1oc(CCC(=O)O)c(C(=O)O)c1C`, the “PPB (fb)” value is listed as 0.99.
For `CNS(=O)(=O)CCc1ccc2[nH]cc(C3CCN(C)CC3)c2c1` [Naratriptan], the “PPB (fb)” value is listed as 0.29.
In the case of `CO[C@H]1O[C@@H]2O[C@@]3(C)CC[C@H]4[C@H](C)CC[C@@H]([C@H]1C)[C@@]24OO3` [artemether], the “PPB (fb)” value is given as 0.5.
For `COCCc1ccc(OCC(O)CNC(C)C)cc1` (stereo not drawn) [Metoprolol], the “PPB (fb)” value is given as 0.11.
For `CC(=O)OCC1=C(C(=O)O)N2C(=O)[C@@H](NC(=O)CC#N)[C@H]2SC1` [cephacetrile], the “PPB (fb)” value is given as 0.2.
In the case of `C[C@H](N[C@@H](CCc1ccccc1)C(=O)O)C(=O)N1Cc2ccccc2C[C@H]1C(=O)O` [Quinaprilat], the “PPB (fb)” value is given as 0.68.
For `CCCSc1ccc2nc(NC(=O)OC)[nH]c2c1` [albendazole], the “PPB (fb)” value is listed as 0.7.
For `O=C(O)CCNC(=O)c1ccc(/N=N/c2ccc(O)c(C(=O)O)c2)cc1` [balsalazide], the “PPB (fb)” value is listed as 0.99.
In the case of `C[C@H](N[C@@H](CCc1ccccc1)C(=O)O)C(=O)N1CCC[C@H]1C(=O)O` [Enalaprilat], the “PPB (fb)” value is listed as 0.46.
In the case of `CC(C)(C)c1ccc(C(=O)CCCN2CCC(OC(c3ccccc3)c3ccccc3)CC2)cc1` [ebastine], the “PPB (fb)” value is listed as 0.98.

Same assay, conditions: fraction bound to plasma protein; small molecule dataset, sheet 1-SM, Set Dtr; ref Ingle et al.; cited from earlier work
In the case of `NCC[C@H](O)C(=O)N[C@@H]1C[C@H](N)[C@@H](O[C@H]2O[C@H](CN)[C@@H](O)[C@H](O)[C@H]2O)[C@H](O)[C@H]1O[C@H]1O[C@H](CO)[C@@H](O)[C@H](N)[C@H]1O` [Amikacin], the “PPB (fb)” value is listed as 0.09.
For `NS(=O)(=O)c1cc(C(=O)O)cc(N2CCCC2)c1Oc1ccccc1` [Piretanide], the “PPB (fb)” value is given as 0.94.
In the case of `NCCCCCC(=O)O` [Aminohexanoic acid], the “PPB (fb)” value is given as 0.08.
In the case of `CN1CCN(CCCN2c3ccccc3Sc3ccc(C(F)(F)F)cc32)CC1` [trifluoperazine], the “PPB (fb)” value is given as 0.99.
In the case of `Nc1nc(Cl)nc2c1ncn2[C@H]1C[C@H](O)[C@@H](CO)O1` [Cladribine], the “PPB (fb)” value is given as 0.2.
In the case of `Cc1ccc(C(=O)c2ccc(CC(=O)O)n2C)cc1` [tolmetin], the “PPB (fb)” value is listed as 0.99.
In the case of `CN(C)CCCN1c2ccccc2Sc2ccccc21` [Promazine], the “PPB (fb)” value is listed as 0.89.
In the case of `Cc1cccc(C)c1OCC(C)N` (stereo not drawn) [Mexiletine], the “PPB (fb)” value is listed as 0.63.
In the case of `Nc1nc2c(ncn2CCC(CO)CO)c(=O)[nH]1` [Penciclovir], the “PPB (fb)” value is listed as 0.13.
In the case of `CC(CN1c2ccccc2Sc2ccccc21)N(C)C` (stereo not drawn) [Promethazine], the “PPB (fb)” value is listed as 0.88.
In the case of `N=C(N)c1ccc(CNC(=O)[C@@H]2CCN2C(=O)[C@H](NCC(=O)O)C2CCCCC2)cc1` [Melagatran], the “PPB (fb)” value is given as 0.07.
In the case of `CCC1=C(C)CN(C(=O)NCCc2ccc(S(=O)(=O)NC(=O)N[C@H]3CC[C@H](C)CC3)cc2)C1=O` [Glimepiride], the “PPB (fb)” value is given as 0.99.

Same assay, conditions: fraction bound to plasma protein; small molecule dataset, sheet 1-SM; ref Ingle et al.; cited from earlier work
In the case of `CC(C)=CCC1C(=O)N(c2ccccc2)N(c2ccccc2)C1=O` [feprazone], the “PPB (fb)” value is listed as 0.95.
In the case of `CCCC(N)C(=O)NC1C(=O)N2C1SC(C)(C)C2C(=O)O` (stereo not drawn) [penicillin12], the “PPB (fb)” value is listed as 0.33.
For `CC1(C)SC2C(NC(=O)COc3cccc(F)c3)C(=O)N2C1C(=O)O` (stereo not drawn) [penicillin53], the “PPB (fb)” value is given as 0.83.
For `CC[C@@H]1C(=O)OC[C@@H]1Cc1cncn1C` [Pilocarpine], the “PPB (fb)” value is given as 0.01.
In the case of `C[C@]12CCC(=O)C=C1CC[C@H]1[C@@H]3CC[C@](O)(C(=O)CO)[C@@]3(C)C[C@H](O)[C@@]12F` [fludrocortisone], the “PPB (fb)” value is given as 0.75.
In the case of `COC(C(=O)NC1C(=O)N2C1SC(C)(C)C2C(=O)O)c1cccc([N+](=O)[O-])c1` (stereo not drawn) [penicillin46], the “PPB (fb)” value is listed as 0.6.
For `COC(=O)[C@@H]1CC2=CC(=O)CC[C@]2(C)[C@@]23O[C@@H]2C[C@@]2(C)[C@@H](CC[C@@]24CCC(=O)O4)[C@H]13` [eplerenone], the “PPB (fb)” value is given as 0.46.
In the case of `CCn1cc(C(=O)O)c(=O)c2ccc(C)nc21` [nalidixic acid], the “PPB (fb)” value is given as 0.94.
In the case of `CC1(C)SC2C(NC(=O)C(Cl)c3ccccc3)C(=O)N2C1C(=O)O` (stereo not drawn) [penicillin22], the “PPB (fb)” value is given as 0.78.
For `CC(C)NCC(O)c1ccc(NS(C)(=O)=O)cc1` (stereo not drawn) [Sotalol], the “PPB (fb)” value is listed as 0.28.
In the case of `CC(C(N)=O)c1ccc(OS(=O)(=O)C(F)(F)F)cc1` (stereo not drawn) [JMC_03], the “PPB (fb)” value is listed as 0.92.
In the case of `O=C(O)c1ccccc1Nc1cccc(C(F)(F)F)c1` [flufenamic acid], the “PPB (fb)” value is listed as 0.9.
In the case of `O=C(O)c1ccc(O)cc1` [p-hydroxybenzoic acid], the “PPB (fb)” value is listed as 0.35.
In the case of `CO[C@]12C[C@@H](COC(=O)c3cncc(Br)c3)CN(C)[C@@H]1Cc1cn(C)c3cccc2c13` [nicergoline], the “PPB (fb)” value is given as 0.95.
For `NC(=O)c1cnccn1` [Pyrazinamide], the “PPB (fb)” value is given as 0.1.
In the case of `O=c1[nH]c2ccccc2n1CCCN1CCN(C(c2ccccc2)c2ccccc2)CC1` [oxatomide], the “PPB (fb)” value is given as 0.91.
In the case of `CC(C)Cc1ccc(C(C)C(=O)NCCOCCO)cc1` (stereo not drawn) [JMC_08], the “PPB (fb)” value is listed as 0.83.
In the case of `CC(=O)N[C@H]1[C@H]([C@H](O)[C@H](O)CO)OC(C(=O)O)=C[C@@H]1N=C(N)N` [Zanamivir], the “PPB (fb)” value is listed as 0.09.
In the case of `C[C@@H](O)[C@H]1C(=O)N2C(C(=O)O)=C(SCCOC(N)=O)S[C@H]12` [Sch34343], the “PPB (fb)” value is given as 0.65.
In the case of `[H]/N=C(/N)N[C@H]1[C@H](O)[C@@H](O)[C@H](O[C@@H]2O[C@@H](C)[C@](O)(C=O)[C@H]2O[C@@H]2O[C@@H](CO)[C@H](O)[C@@H](O)[C@@H]2NC)[C@@H](N/C(N)=N\[H])[C@@H]1O` [Streptomycin], the “PPB (fb)” value is given as 0.37.
For `CC1(C)SC2C(NC(=O)C(O)c3ccccc3)C(=O)N2C1C(=O)O` (stereo not drawn) [penicillin37], the “PPB (fb)” value is given as 0.53.
For `COc1cc2c(cc1OC)C1CC(=O)C(CC(C)C)CN1CC2` (stereo not drawn) [tetrabenazine], the “PPB (fb)” value is given as 0.85.
For `CC(/C=C1\SC(=S)N(CC(=O)O)C1=O)=C\c1ccccc1` [Epalrestat], the “PPB (fb)” value is given as 0.9.

Same assay, conditions: plasma; cited from earlier work
For `COc1ccc(CC(C)NCC(O)c2ccc(O)c(NC=O)c2)cc1` (stereo not drawn) [formoterol], the “PPB (fb)” value is given as 0.62.
For Rifabutin, the “PPB (fb)” value is listed as 0.76.
For acenocoumarol, the “PPB (fb)” value is given as 0.98.
For demeclocycline, the “PPB (fb)” value is given as 0.54.
For `CCCC(C)C1(CC)C(=O)NC(=S)NC1=O` (stereo not drawn) [Thiopental], the “PPB (fb)” value is given as 0.84.
For `CCOC(=O)[C@H](CCc1ccccc1)N[C@@H](C)C(=O)N1[C@H](C(=O)O)C[C@@H]2CCC[C@@H]21` [ramipril], the “PPB (fb)” value is listed as 0.61.
For `CN1CC[C@]23CCCC[C@H]2[C@H]1Cc1ccc(O)cc13` [levorphanol], the “PPB (fb)” value is given as 0.4.
In the case of `CCOC(=O)C1(c2ccccc2)CCN(CCC(O)c2ccccc2)CC1` (stereo not drawn) [phenoperidine], the “PPB (fb)” value is given as 0.8.
For `CCC(=O)O[C@](Cc1ccccc1)(c1ccccc1)[C@H](C)CN(C)C` [Propoxyphene], the “PPB (fb)” value is given as 0.75.
In the case of `CCC(=O)C(CC(C)N(C)C)(c1ccccc1)c1ccccc1` (stereo not drawn) [Methadone], the “PPB (fb)” value is listed as 0.84.
In the case of `CCc1cc2c(s1)-n1c(C)nnc1CN=C2c1ccccc1Cl` [etizolam], the “PPB (fb)” value is listed as 0.93.
